The results in this text go back to patent US11685733B2, “Compounds for treating Rac-GTPase mediated disorder” (Children's Medical Center Corporation, priority 2018, dated 2023).

Data set [1] concerns SEM, RS4,11, and P12 leukemia cell lines. In words: Inhibition of proliferation in three leukemia cell lines. The note with it: Homo sapiens; range over SEM, RS4,11 and P12 cell lines. The data set is classed as cell-based. On the procedure:
Compound 1 was assayed for inhibition of proliferation in three leukemia cell lines, i.e., (1) SEM, (2) RS4,11, and (3) P12 by […]. The cells for the proliferation assay were spun down and re-suspended. The cell suspension was then divided and Compound 1 was added in desired concentrations and subsequently plated. Following an incubation period, the […] (Promega CellTiter 96® Aqueous Non-Radioactive Cell Proliferation Assay) was added and allowed to incubate. The absorbance is subsequently measured at 490 nm using a plate reader.

The test system of a further data set is SEM cell line. In words: Flow based Annexin V apoptosis and cell death assay. More on the design: species or system human. Particulars: Annexin V kit. The text has this:
Compound 1 was further analyzed for its effect on cell apoptosis and cell death using a flow based assay using Annexin V kit.

Another data set deals with Rac. The experiment in a line: Pull down assay of Rac activation with Western blot. The note with it: SEM cell line. The data set is classed as cell-based, human. On the procedure: Further, a biochemical pull down assay using the SEM cell line was performed to confirm specific inhibition of Rac activation by Compound 1 as indicated by disruption of the interaction between Rac and GTPase. The assay initially required treatment of cells followed by pull down and analysis with Western blot. The cells were first starved in serum free media for 2 hours. They were then re-suspended in serum-containing medium. NSC23766 and Compound 1 were added at desired concentrations. Following incubation for the desired length of time, the cells were pelleted and lysed with Magnesium Lysis Buffer (Millipore Mg^2+ lysis/wash buffer).

Data set [2] has as its system mononuclear bone marrow cells from WT mice. In words: Colony forming unit assay (CFU assay) for toxicity. The data set is classed as cell-based. On the procedure: The formulation obtained in Example 2 was used for evaluating the toxicity of Compound 1 in a colony forming unit assay (CFU assay), which was performed by plating mononuclear bone marrow cells from WT mice in methylcellulose media supplemented with different doses of Compound 1, NSC23766, and DMSO. The number of colonies formed in each condition was scored 7 days after plating.

The subject of a further data set is P12 xenograft. In words: Anti-leukemia activity in mouse model of human leukemia (bioluminescence imaging, mCherry cells in bone marrow). The data set is classed as in vivo, mice. Particulars: 10 mg/kg and 100 mg/kg. Here is the method:
(§1) Bioluminecence imaging (BLI) analysis was performed by treating a mouse model (8 mice) of human leukemia (P12 xenograft) with two different doses of Compound 1 (i.e., 10 and 100 mg/kilogram of body weight) using the formulation obtained in Example 2. P12 cells were transduced with a vector encoding for Luciferase and mCherry as a fluorescent marker. Treatment was started 5 days after inoculation of the cell line, and carried out by oral gavage for 18 days twice a day. Mice were imaged twice a week to obtain a quantification of the disease burden.

A short description of data set [3]: Relative weight of mice during the efficacy study. The note with it: 10 mg/kg and 100 mg/kg, normalized to average weight before treatment. The data set is classed as in vivo. On the procedure: as §1
Data set [4] has as its system sensitive leukemic cell lines. The experiment in a line: Induction of apoptosis in leukemic cell lines.
Data set [5] has as its system P12 cells with NRAS G12D mutation.

Entries after “also recorded” stand apart in the source; their conditions may differ. Where only a bound is given, the exact number is not on record here.

Turning to `O=C(CCc1nnc(CCc2c[nH]c3ccccc23)o1)N1CCN(c2ccc(F)cc2)CC1` [Compound 1, 1-[4-(4-fluorophenyl)piperazin-1-yl]-3-{5-[2-(1H-indol-3-yl)ethyl]-1,3,4-oxadiazol-2-yl}propan-1-one], the IC50 in data set [1] lay in the range of 0.8 to 7 µM. Further, in the data set on SEM cell line, the “cell apoptosis and cell death” value was “caused cells apoptosis and cell death in the SEM cell line in a dose-dependent manner”. Besides, in the data set with Rac, the “total Rac levels” value was “no significant effect on total Rac levels”. Also, the Rac activation entry in the data set on Rac (pull down) is on record as “significant reduction of Rac activation; also recorded: dose dependent reduction of Rac activation”. In addition, in data set [2] (colonies scored 7 days after plating), the “concentration up to which no toxicity toward clonogenic progenitor bone marrow cells was seen” value is around 100 µM. Besides, the “concentration without toxicity relative to the IC50” value in data set [2] (fold the IC50) is above 100 fold. The “mCherry positive cells in the bone marrow” value with P12 xenograft (fold change to the vehicle group) is on record as “effectively inhibit proliferation”. Further, in the data set with P12 xenograft (oral gavage twice a day for 18 days), the “bioluminescence (disease burden)” value is given as “significantly reduced the bioluminescence”. Besides, in data set [3], the “relative weight of the mice” value was “relatively stable over the course of treatment”.
Turning to `CCc1ccc(CN(C)C(=O)CCc2nnc(CCc3c[nH]c4ccccc34)o2)cc1` [Compound 5], the apoptosis result in data set [4] was “induced apoptosis”. Moreover, the “PDE6D/ARL2/3-dependent trafficking of RAS” value in data set [5] is listed as “affected PDE6D/ARL2/3-dependent trafficking of RAS”.
